Laboratory results from patent publication US20230272401A1, “COMPOSITIONS FOR FLCN GENE MODULATION AND METHODS THEREOF” (GENETIC INTELLIGENCE, INC, priority 2020, published 2023).
e = 2'-O-(2-methoxyethyl) (MOE); d = 2'-deoxy (DNA); m = 2'-O-methyl

These substances were tested on human FLCN protein (assay: Antisense inhibition of human FLCN in HEK293T cells, IC50 (Western blot)). Settings: 0 nM to 100 nM ASO, Lipofectamine, 2-day incubation, FLCN protein by Western blot.
Type: cell-based
Excerpt: The antisense oligonucleotides listed in this example have all nucleosides linked by modified phosphorothioate backbones. Bolded nucleosides presented in Table 17 indicate nucleosides that are modified with a 2′-MOE sugar modification. Underlined nucleosides presented in Table 17 indicate non-modified DNA nucleosides (deoxynucleotides). Nucleosides that are italicized indicate nucleosides with a 2′-OMe sugar modification. GI81, GI84, GI85, GI86, GI88, GI89 and GI90 are gapped sequences comprising a central sequence of deoxynucleotides, which are flanked on both sides by wing sequences consisting of 2′-MOE modified nucleotides, wherein the second nucleotide of the central sequence from the 5′ end of the oligonucleotide contains a 2′-OMe sugar modification.
These antisense oligonucleotides were tested in the human cell line HEK293T. HEK293T cells were seeded at 400,000 cells per well in a 6-well plate. After 1 day, various concentrations of antisense oligonucleotides ranging from 0 nM to 100 nM were transfected into the cells using Lipofectamine. After a 2-day incubation period, the cells were harvested to obtain whole cell lysates. The whole cell lysates were analyzed by Western blot and probed with a FLCN-specific antibody (CST #3697). The intensity of Western blot bands were quantified by FIJI (Image J) and used to quantify the expression levels of FLCN. The relative expression values of FLCN for the different treatment groups were calculated by normalizing with their respective α-Tubulin loading control, and presented as a percentage to that of the untreated control (which in this case comprised cells not transfected with ASOs). The potencies of these antisense oligonucleotides are reported in the form of IC50 values in Table 17.
“GI88: gapped phosphorothioate ASO, 2′-MOE wings, 2′-OMe at second gap nucleotide, GCCTGGCGGACAATGCTG, Exon 5, SEQ ID NO 616 (sugars from the 5' end e4 d1 m1 d8 e4, all phosphorothioate, methylation of C not given here)” gave an IC50 of 19 nM. “GI81: gapped phosphorothioate ASO, 2′-MOE wings, 2′-OMe at second gap nucleotide, TGGCTGATATATCCCGGG, Exon 5, SEQ ID NO 21 (sugars from the 5' end e4 d1 m1 d8 e4, all phosphorothioate, methylation of C not given here)” was tested, and the IC50 was 14 nM. Work on “GI90: gapped phosphorothioate ASO, 2′-MOE wings, 2′-OMe at second gap nucleotide, CGGGTGCCCTGCAGCAAG, Exon 5, SEQ ID NO 618 (sugars from the 5' end e4 d1 m1 d8 e4, all phosphorothioate, methylation of C not given here)” yielded an IC50 of 35 nM.
